Earlier results as cited in patent US20200221707A1, “Sanitizing Compositions and Methods for Making and Using Same” (priority 2017, published 2020).

Assays:
[1] = tested on: Gram-positive bacteria
[2] = tested on: Gram-negative bacteria and fungi
[3] = tested on: most bacteria; conditions: in <30 seconds

Row | Structure (SMILES) | amount active against Gram-positive bacteria [1] | amount effective against Gram-negative bacteria and fungi [2] | bacteria destroyed [3]
1 | [H]/N=C(\N/C(=N/[H])NCCCCCCNC(=N)NC(=N)Nc1ccc(Cl)cc1)Nc1ccc(Cl)cc1 [Chlorhexidine] | at least 1 ppm | 10-80 ppm | 
2 | CC(C)O [Isopropyl alcohol] |  |  | > 99.99%
